Experimental data as given in ChEMBL document CHEMBL1909294, “Translating clinical findings into knowledge in drug safety evaluation--drug induced liver injury prediction system (DILIps)” (PLoS Comput Biol, 2011).

What was measured:
[1] = tested on: Hepatotoxicity;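 as to HepSE Combined Scores: combined hepatic side effect score as listed in the training data of the Drug Induced Liver Injury Prediction System (DILIps)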;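 as to HepSE bilirubinemia: bilirubinemia hepatic side effect score drawn from the DILIps training data, a prediction system for drug-induced liver injury; call rule not given here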;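 as to HepSE elevated liver function tests: hepatic side effect score for raised liver function tests, as recorded in the DILIps training set used for predicting drug-induced liver injury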; as to HepSE hepatic failure: call rule not given here;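 as to HepSE jaundice: Jaundice-related hepatic side-effect score drawn from the training data of the DILIps (drug-induced liver injury prediction system); call rule not given here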; as to HepSE liver disease: call rule not given here;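 as to HepSE liver function tests abnormal: hepatic side effect score taken from the DILIps (drug-induced liver injury prediction system) training data, here covering abnormal liver function test findings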
[2] = tested on: Hepatotoxicity; remark: listed apart in the source;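 as to HepSE Combined Scores: combined hepatic side effect score as listed in the training data of the Drug Induced Liver Injury Prediction System (DILIps)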;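 as to HepSE bilirubinemia: bilirubinemia hepatic side effect score drawn from the DILIps training data, a prediction system for drug-induced liver injury; call rule not given here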;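 as to HepSE elevated liver function tests: hepatic side effect score for raised liver function tests, as recorded in the DILIps training set used for predicting drug-induced liver injury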; as to HepSE hepatic failure: call rule not given here;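 as to HepSE jaundice: Jaundice-related hepatic side-effect score drawn from the training data of the DILIps (drug-induced liver injury prediction system); call rule not given here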; as to HepSE liver disease: call rule not given here;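 as to HepSE liver function tests abnormal: hepatic side effect score taken from the DILIps (drug-induced liver injury prediction system) training data, here covering abnormal liver function test findings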
[3] = tested on: Hepatotoxicity; remark: listed apart in the source;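 as to HepSE Combined Scores: combined hepatic side effect score as listed in the training data of the Drug Induced Liver Injury Prediction System (DILIps)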;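 as to HepSE bilirubinemia: bilirubinemia hepatic side effect score drawn from the DILIps training data, a prediction system for drug-induced liver injury; call rule not given here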;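 as to HepSE elevated liver function tests: hepatic side effect score for raised liver function tests, as recorded in the DILIps training set used for predicting drug-induced liver injury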; as to HepSE hepatic failure: call rule not given here;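 as to HepSE jaundice: Jaundice-related hepatic side-effect score drawn from the training data of the DILIps (drug-induced liver injury prediction system); call rule not given here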; as to HepSE liver disease: call rule not given here;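 as to HepSE liver function tests abnormal: hepatic side effect score taken from the DILIps (drug-induced liver injury prediction system) training data, here covering abnormal liver function test findings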
[4] = tested on: Hepatotoxicity; remark: listed apart in the source;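 as to HepSE Combined Scores: combined hepatic side effect score as listed in the training data of the Drug Induced Liver Injury Prediction System (DILIps)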;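 as to HepSE bilirubinemia: bilirubinemia hepatic side effect score drawn from the DILIps training data, a prediction system for drug-induced liver injury; call rule not given here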; as to HepSE hepatic failure: call rule not given here;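 as to HepSE jaundice: Jaundice-related hepatic side-effect score drawn from the training data of the DILIps (drug-induced liver injury prediction system); call rule not given here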; as to HepSE liver disease: call rule not given here;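 as to HepSE liver function tests abnormal: hepatic side effect score taken from the DILIps (drug-induced liver injury prediction system) training data, here covering abnormal liver function test findings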
[5] = tested on: Hepatotoxicity; remark: listed apart in the source; as to HepSE hepatic failure: call rule not given here; as to HepSE liver disease: call rule not given here
[6] = tested on: Hepatotoxicity; remark: listed apart in the source; as to HepSE hepatic failure: call rule not given here; as to HepSE liver disease: call rule not given here
[7] = tested on: Hepatotoxicity; remark: listed apart in the source
[8] = tested on: Hepatotoxicity; remark: listed apart in the source
[9] = tested on: Hepatotoxicity; remark: listed apart in the source
[10] = tested on: Hepatotoxicity; remark: listed apart in the source
[11] = tested on: Hepatotoxicity; remark: listed apart in the source
[12] = tested on: Hepatotoxicity; remark: listed apart in the source
[13] = tested on: Hepatotoxicity; remark: listed apart in the source
[14] = tested on: Hepatotoxicity; remark: listed apart in the source

| Compound | HepSE_jaundice [1] | HepSE_liver disease [2] | HepSE_bilirubinemia [3] | HepSE_hepatic failure [4] | HepSE_Combined Scores [5] | HepSE_liver function tests abnormal [6] | HepSE_hepatic necrosis [7] | HepSE_elevated liver function tests [8] | HepSE_hepatomegaly [9] | HepSE_cirrhosis [10] | HepSE_cholecystitis [11] | HepSE_cholelithiasis [12] | HepSE_hepatitis [13] | HepSE_liver fatty [14] | also measured |
| --- | --- | --- | --- | --- | --- | --- | --- | --- | --- | --- | --- | --- | --- | --- | --- |
| CC1=NS(=O)(=O)c2cc(Cl)ccc2N1 [DIAZOXIDE] | 0 | 0 | 0 | 0 | 0 | 0 | 0 | 0 | 0 | 0 | 0 | 0 | 0 | 0 | – |
| O=C1CN(/N=C/c2ccc(-c3ccc([N+](=O)[O-])cc3)o2)C(O)=N1 [DANTROLENE] | 0 | 0 | 0 | 1 | 2 | 0 | 0 | 0 | 0 | 0 | 0 | 0 | 1 | 0 | – |
| O=C1C(O)=C([C@H]2CC[C@H](c3ccc(Cl)cc3)CC2)C(=O)c2ccccc21 [ATOVAQUONE] | 0 | 0 | 0 | 1 | 2 | 0 | 0 | 0 | 0 | 0 | 0 | 0 | 1 | 0 | – |
| C[N+](C)(C)CCO.Cn1c(=O)c2[n-]cnc2n(C)c1=O [OXTRIPHYLLINE] | 0 | 0 | 0 | 0 | 0 | 0 | 0 | 0 | 0 | 0 | 0 | 0 | 0 | 0 | – |
| SEVELAMER | 0 | 0 | 0 | 0 | 0 | 0 | 0 | 0 | 0 | 0 | 0 | 0 | 0 | 0 | – |
| Cc1ccc(Cl)c(Nc2ccccc2C(=O)O)c1Cl [MECLOFENAMIC ACID] | 1 | 0 | 0 | 0 | 1 | 0 | 0 | 0 | 0 | 0 | 0 | 0 | 0 | 0 | – |
| CC(C)NCC(O)COc1ccc(CCOCC2CC2)cc1 (stereo not drawn) [BETAXOLOL] | – | – | – | – | – | – | – | – | – | – | – | – | – | – | HepSE_jaundice ([1]; Liver): 0; HepSE_liver disease ([2]; Liver): 0; HepSE_bilirubinemia ([3]; Liver): 0; HepSE_hepatic failure ([4]; Liver): 0; HepSE_Combined Scores ([5]; Liver): 0; HepSE_liver function tests abnormal ([6]; Liver): 0; HepSE_hepatic necrosis ([7]; Liver): 0; HepSE_elevated liver function tests ([8]; Liver): 0; HepSE_hepatomegaly ([9]; Liver): 0; HepSE_cirrhosis ([10]; Liver): 0; HepSE_cholecystitis ([11]; Liver): 0; HepSE_cholelithiasis ([12]; Liver): 0; HepSE_hepatitis ([13]; Liver): 0; HepSE_liver fatty ([14]; Liver): 0 |
| CCc1c(C)[nH]c2c1C(=O)C(CN1CCOCC1)CC2 (stereo not drawn) [MOLINDONE] | 0 | 0 | 0 | 0 | 0 | 0 | 0 | 0 | 0 | 0 | 0 | 0 | 0 | 0 | – |
| CC(C)C[C@H]1C(=O)N2CCC[C@H]2[C@]2(O)O[C@](NC(=O)[C@@H]3C=C4c5cccc6[nH]c(Br)c(c56)C[C@H]4N(C)C3)(C(C)C)C(=O)N12 [BROMOCRIPTINE] | 0 | 0 | 0 | 0 | 0 | 0 | 0 | 0 | 0 | 0 | 0 | 0 | 0 | 0 | – |
| CC(=O)NC[C@H]1CN(c2ccc(N3CCOCC3)c(F)c2)C(=O)O1 [LINEZOLID] | 1 | 0 | 0 | 0 | 2 | 1 | 0 | 0 | 0 | 0 | 0 | 0 | 0 | 0 | – |
| O=C1NC(c2ccccc2)(c2ccccc2)C(=O)N1COP(=O)(O)O [FOSPHENYTOIN] | 0 | 0 | 0 | 0 | 1 | 1 | 0 | 0 | 0 | 0 | 0 | 0 | 0 | 0 | – |
| C[C@@H]1C[C@H]2[C@@H]3CCC4=CC(=O)C=C[C@]4(C)[C@@]3(F)[C@@H](O)C[C@]2(C)[C@@]1(O)C(=O)CO [DEXAMETHASONE] | 0 | 0 | 0 | 0 | 1 | 0 | 0 | 0 | 1 | 0 | 0 | 0 | 0 | 0 | – |
| OC(Cn1cncn1)(Cn1cncn1)c1ccc(F)cc1F [FLUCONAZOLE] | – | – | – | – | – | – | – | – | – | – | – | – | – | – | HepSE_jaundice ([1]; Liver): 1; HepSE_liver disease ([2]; Liver): 0; HepSE_bilirubinemia ([3]; Liver): 0; HepSE_hepatic failure ([4]; Liver): 1; HepSE_Combined Scores ([5]; Liver): 4; HepSE_liver function tests abnormal ([6]; Liver): 0; HepSE_hepatic necrosis ([7]; Liver): 1; HepSE_elevated liver function tests ([8]; Liver): 0; HepSE_hepatomegaly ([9]; Liver): 0; HepSE_cirrhosis ([10]; Liver): 0; HepSE_cholecystitis ([11]; Liver): 0; HepSE_cholelithiasis ([12]; Liver): 0; HepSE_hepatitis ([13]; Liver): 1; HepSE_liver fatty ([14]; Liver): 0 |
| CC(C)(N)Cc1ccccc1 [PHENTERMINE] | 0 | 0 | 0 | 0 | 0 | 0 | 0 | 0 | 0 | 0 | 0 | 0 | 0 | 0 | – |
| CC(C)NCC(O)c1cc(O)cc(O)c1 (stereo not drawn) [METAPROTERENOL] | 0 | 0 | 0 | 0 | 0 | 0 | 0 | 0 | 0 | 0 | 0 | 0 | 0 | 0 | – |
| CC(=O)N(CC(O)CN(C(C)=O)c1c(I)c(C(=O)NCC(O)CO)c(I)c(C(=O)NCC(O)CO)c1I)c1c(I)c(C(=O)NCC(O)CO)c(I)c(C(=O)NCC(O)CO)c1I (stereo not drawn) [IODIXANOL] | 0 | 0 | 0 | 0 | 0 | 0 | 0 | 0 | 0 | 0 | 0 | 0 | 0 | 0 | – |
| CC1(C)O[C@@H]2C[C@H]3[C@@H]4C[C@H](F)C5=CC(=O)CC[C@]5(C)[C@H]4[C@@H](O)C[C@]3(C)[C@]2(C(=O)CO)O1 [FLURANDRENOLIDE] | 0 | 0 | 0 | 0 | 0 | 0 | 0 | 0 | 0 | 0 | 0 | 0 | 0 | 0 | – |
